Measurements taken from patent US9776991B2, “Thienomethylpiperazine derivatives as inhibitors of soluble epoxide hydrolase” (SANOFI, priority 2013, dated 2017).

Molecular target: recombinant sEH (soluble epoxide hydrolase, EPHX2) (Homo sapiens (Human), UniProt P34913)
Test: biochemical fluorometric sEH inhibition assay with Phome substrate
Details: recombinant sEH purified from Sf9 insect cells, 2 nM sEH, 5 μM Phome, 60 minutes at 30° C.
Procedure, shortened: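 Human sEH expressed in Sf9 cells (2 nM final) pre-incubated 15 min at 30 °C with compound (0.0001-10 μM), then 5 μM Phome added for 60 min at 30 °C in 25 mM Hepes with 0.01% albumin. Fluorescent 6-methoxy-2-naphthaldehyde read before substrate addition and at the end; IC50 from % inhibition.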

Chain of recombinant sEH (soluble epoxide hydrolase, EPHX2) (P34913 whole entry): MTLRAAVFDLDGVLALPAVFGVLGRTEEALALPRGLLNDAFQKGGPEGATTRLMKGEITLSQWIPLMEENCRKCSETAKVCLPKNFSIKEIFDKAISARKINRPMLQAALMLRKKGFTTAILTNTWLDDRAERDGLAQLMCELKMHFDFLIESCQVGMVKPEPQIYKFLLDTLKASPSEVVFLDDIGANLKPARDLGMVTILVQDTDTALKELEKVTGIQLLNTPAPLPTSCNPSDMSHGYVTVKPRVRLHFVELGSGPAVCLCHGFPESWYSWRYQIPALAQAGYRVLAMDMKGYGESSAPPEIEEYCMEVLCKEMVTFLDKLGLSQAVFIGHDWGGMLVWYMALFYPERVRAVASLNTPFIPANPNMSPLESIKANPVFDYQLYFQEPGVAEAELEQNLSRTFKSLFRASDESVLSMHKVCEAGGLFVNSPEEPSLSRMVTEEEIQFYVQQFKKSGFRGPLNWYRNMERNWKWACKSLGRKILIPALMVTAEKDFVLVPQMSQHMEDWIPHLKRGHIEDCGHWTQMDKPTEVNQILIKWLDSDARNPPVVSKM

Row | IC50 | SMILES
1 | 0.0108 µM | CC(C)(O)C(=O)N1CCN(Cc2ncc(C(=O)NCc3ccc(Cl)cc3Cl)s2)CC1 [Example 172]
2 | 0.0334 µM | COCCC(=O)N1CCN(Cc2ncc(C(=O)NCc3ccc(Cl)cc3Cl)s2)CC1 [Example 173]
3 | 0.0148 µM | Cc1cccc(C(=O)N2CCN(Cc3ncc(C(=O)NCc4ccc(Cl)cc4Cl)s3)CC2)n1 [Example 174]
4 | 0.0204 µM | O=C(NCc1ccc(Cl)cc1Cl)c1cnc(CN2CCN(C(=O)c3cccc(O)n3)CC2)s1 [Example 175]
5 | 0.0134 µM | CC(C)(CO)C(=O)N1CCN(Cc2ncc(C(=O)NCc3ccc(Cl)cc3Cl)s2)CC1 [Example 176]
6 | 0.0911 µM | CC(C(=O)N1CCN(Cc2ncc(C(=O)NCc3ccc(Cl)cc3Cl)s2)CC1)N(C)C (stereo not drawn) [Example 177, 2-[4-(2-Dimethylamino-propionyl)-piperazin-1-ylmethyl]-thiazole-5-carboxylic acid 2,4-dichloro-benzylamide]
7 | 0.0586 µM | O=C(NCc1ccc(Cl)cc1Cl)c1cnc(CN2CCN(C(=O)c3ccc[nH]c3=O)CC2)s1 [Example 178]
8 | 0.0241 µM | CC[C@@H](O)C(=O)N1CCN(Cc2ncc(C(=O)NCc3ccc(Cl)cc3Cl)s2)CC1 [Example 179]
9 | 0.00846 µM | O=C(NCc1ccc(Cl)cc1Cl)c1cnc(CN2CCN(C(=O)c3nc(F)ccc3F)CC2)s1 [Example 180]
10 | 0.0521 µM | O=C(NCc1ccc(Cl)cc1Cl)c1cnc(CN2CCN(C(=O)CO)CC2)s1 [Example 181]
11 | 0.0184 µM | O=C(NCc1ccc(Cl)cc1Cl)c1cnc(CN2CCN(C(=O)C3CCCO3)CC2)s1 (stereo not drawn) [Example 182]
12 | 0.0188 µM | O=C(NCc1ccc(Cl)cc1Cl)c1cnc(CN2CCN(C(=O)C3CCOC3)CC2)s1 (stereo not drawn) [Example 183]
13 | 0.115 µM | CN1CCC[C@H]1C(=O)N1CCN(Cc2ncc(C(=O)NCc3ccc(Cl)cc3Cl)s2)CC1 [Example 184]
14 | 0.0138 µM | CC(C)(O)CC(=O)N1CCN(Cc2ncc(C(=O)NCc3ccc(Cl)cc3Cl)s2)CC1 [Example 185]
15 | 0.0337 µM | O=C(NCc1ccc(Cl)cc1Cl)c1cnc(CN2CCN(C(=O)c3ccccn3)CC2)s1 [Example 186]
16 | 0.0159 µM | COCCOCC(=O)N1CCN(Cc2ncc(C(=O)NCc3ccc(Cl)cc3Cl)s2)CC1 [Example 188]
17 | 0.0289 µM | CC(O)C(=O)N1CCN(Cc2ncc(C(=O)NCc3ccc(Cl)cc3Cl)s2)CC1 (stereo not drawn) [Example 189]
18 | > 1 µM | CN1CCC(C(=O)N2CCN(Cc3ncc(C(=O)NCc4ccc(Cl)cc4Cl)s3)CC2)CC1 [Example 190]
19 | 0.014 µM | CC[C@H](O)C(=O)N1CCN(Cc2ncc(C(=O)NCc3ccc(Cl)cc3Cl)s2)CC1 [Example 191]
20 | 0.0353 µM | COCC(=O)N1CCN(Cc2ncc(C(=O)NCc3ccc(Cl)cc3Cl)s2)CC1 [Example 192]

Row | IC50 | SMILES
21 | 0.0152 µM | O=C(NCc1ccc(Cl)cc1Cl)c1cnc(CN2CCN(C(=O)CN3CCOC3=O)CC2)s1 [Example 193]
22 | 0.032 µM | Cc1cccnc1C(=O)N1CCN(Cc2ncc(C(=O)NCc3ccc(Cl)cc3Cl)s2)CC1 [Example 194]
23 | 0.0736 µM | N#CCC(=O)N1CCN(Cc2ncc(C(=O)NCc3ccc(Cl)cc3Cl)s2)CC1 [Example 195]
24 | 0.0364 µM | COc1cccnc1C(=O)N1CCN(Cc2ncc(C(=O)NCc3ccc(Cl)cc3Cl)s2)CC1 [Example 196]
25 | 0.0495 µM | CN1CC(C(=O)N2CCN(Cc3ncc(C(=O)NCc4ccc(Cl)cc4Cl)s3)CC2)CC1=O (stereo not drawn) [Example 197]
26 | 0.0133 µM | CC(C)[C@@H](O)C(=O)N1CCN(Cc2ncc(C(=O)NCc3ccc(Cl)cc3Cl)s2)CC1 [Example 198]
27 | 0.208 µM | CN(C)CCC(=O)N1CCN(Cc2ncc(C(=O)NCc3ccc(Cl)cc3Cl)s2)CC1 [Example 199]
28 | 0.00257 µM | NC1(C(=O)N2CCN(Cc3ncc(C(=O)NCc4ccc(Cl)cc4Cl)s3)CC2)CC1 [Example 200]
29 | 0.00637 µM | O=C(NCc1ccc(Cl)cc1Cl)c1cnc(CN2CCN(C(=O)C3(O)CC3)CC2)s1 [Example 201]
30 | 0.0133 µM | COc1cccc(C(=O)N2CCN(Cc3ncc(C(=O)NCc4ccc(Cl)cc4Cl)s3)CC2)n1 [Example 202]
31 | 0.0363 µM | O=C1NCC(C(=O)N2CCN(Cc3ncc(C(=O)NCc4ccc(Cl)cc4Cl)s3)CC2)N1 (stereo not drawn) [Example 203]
32 | 0.0188 µM | CO[C@H](C)C(=O)N1CCN(Cc2ncc(C(=O)NCc3ccc(Cl)cc3Cl)s2)CC1 [Example 204]
33 | 0.0057 µM | COCC1(C(=O)N2CCN(Cc3ncc(C(=O)NCc4ccc(Cl)cc4Cl)s3)CC2)CC1 [Example 205]
34 | 0.00524 µM | Cc1n[nH]c(C)c1C(=O)N1CCN(Cc2ncc(C(=O)NCc3ccc(Cl)cc3Cl)s2)CC1 [Example 206]
35 | 0.00631 µM | COC(C)(C)C(=O)N1CCN(Cc2ncc(C(=O)NCc3ccc(Cl)cc3Cl)s2)CC1 [Example 207]
36 | 0.00967 µM | O=C(NCc1ccc(Cl)cc1Cl)c1cnc(CN2CCN(C(=O)C3CCO3)CC2)s1 (stereo not drawn) [Example 208]
37 | 0.00349 µM | O=C(NCc1ccc(Cl)cc1Cl)c1cnc(CN2CCN(C(=O)C3CCC(O)C3)CC2)s1 (stereo not drawn) [Example 209]
38 | 0.0524 µM | O=C(NCc1ccc(Cl)cc1Cl)c1cnc(CN2CCN(C(=O)CN3C[C@@H](O)CC3=O)CC2)s1 [Example 210]
39 | 0.0909 µM | O=C(NCc1ccc(Cl)cc1Cl)c1cnc(CN2CCN(C(=O)CN3CCC(O)C3)CC2)s1 (stereo not drawn) [Example 211]
